Data reported in US6995135B2, “Peptides and peptidomimetics having anti-proliferative activity and/or that augment nucleic acid damaging agents or treatments” (priority 2002, dated 2006).
Where two headings read alike, the source gives them in different places. Square brackets hold non-standard residues; d marks the D form. Peptide text beside a SMILES is read from it. dPhe(4-NO2) = N[C@H](Cc1ccc([N+](=O)[O-])cc1)C(=O)O; dPhe(F5) = N[C@H](Cc1c(F)c(F)c(F)c(F)c1F)C(=O)O; dBpa = N[C@H](Cc1ccc(C(=O)c2ccccc2)cc1)C(=O)O; dCha = N[C@H](CC1CCCCC1)C(=O)O

Columns and labels:
[1] = Maximal tolerated dose in mouse by single injection; settings: in vivo, observed for a week
[2] = system: Jurkat cells; assay: M phase checkpoint abrogation / non specific toxicity in colchicine treated Jurkat cells, flow cytometry; type: cell-based; settings: with 5 μg/ml colchicine, 24 hours
Method: Cell-cycle analysis The cell cycle status of the cells treated with bleomycin or adriamcin were analyzed by flow cytometry as described by Kawabe (1997) Nature 385:454–458. In brief, two million cells were re-suspended and incubated in 200 μul Krishan's solution (0.1% Sodium citrate, 50 μg/ml PI, 20 μg/ml RNase A and 0.5% NP-40) for 1 hr at 4° C. and analyzed by a flow cytometry, FACScan™ (Beckton Dickinson, Mountain View, Calif.) with the program CELLQuest™ (Beckton Dickinson).
Flow cytometry analysis of M phase checkpoint abrogation by the compounds was performed using human T cell leukemia Jurkat cell line treated with colchicine (5 μg/ml or 0.5 μg/ml) and various doses of peptide/peptidomimetics for 24 hr (FIG. 12). The DNA of the cells was stained and analyzed by flow cytometry as described above.
The “Appearance of side effect when used alone” indicates the peptide/peptidomimetic dose that produced Jurkat cell cycle disturbance, i.e., the appearance of significant amounts of SubG1 cells (dead cells) or cells in which the DNA content of each varies more than usual. […]
A comparison between G2 checkpoint abrogating activity and non specific toxicity (M checkpoint abrogation) by CB501 was performed. […] The DNA amount in each of the treated cells was analyzed by flow cytometry, as previously described.

[3] = system: Jurkat cells; assay: G2 checkpoint abrogation in bleomycin treated Jurkat cells, flow cytometry; type: cell-based, human; settings: for G2 abrogating dose: Jurkat cells, with 40 μg/ml bleomycine, 24 hours, dose with detectable G2 checkpoint abrogation; for G2 checkpoint abrogating activity (in words): bleomycin (40 μg/ml) treated Jurkat cells, % G2/M cells
Method: Flow cytometry analysis of G2 checkpoint abrogation was performed using human leukemia derived Jurkat cell line. In brief, cultured cells were treated with various doses of peptide/peptidomimetic and 40 μg/ml bleomycine for 24 hr. The DNA of the cells was stained with propidium iodide and analyzed by flow cytometry.
The “Appearance of side effect when used alone” indicates the peptide/peptidomimetic dose that produced Jurkat cell cycle disturbance, i.e., the appearance of significant amounts of SubG1 cells (dead cells) or cells in which the DNA content of each varies more than usual. […] The “G2 abrogating dose” indicates the peptide/peptidomimetic dose with 40 μg/ml bleomycine that produced detectable G2 checkpoint abrogation activity following treatment for 24 hours. The “Appearance of side effect when used with colchicine” indicates the peptide/peptidomimetic dose with 5 μg/ml colchicine that produced Jurkat cell cycle disturbance following treatment for 24 hours.

[4] = Human serum treatment analysis, residual G2 checkpoint abrogating activity; type: in vitro ADME; settings: d-type amino acid peptides compared with l-type peptide such as CBP413
Method: Serum analysis was performed to determine the stability of peptides in mouse and human serum. Briefly, peptides (10 mM or 2.5 mM) were incubated with freshly prepared human serum at 37 degrees for 1 hr. CBP50 (10 mM) was incubated with freshly prepared mouse serum for 1 hr at 37 degree. Jurkat cells were treated with the serum with or without peptides and bleomycin (40 μg/ml) and incubated for 24 hr. The population of G2 phase cells was determined by flow cytometry as previously described. The residual G2 checkpoint abrogating activity of serum treated peptides were determined by comparing the % G2 cells of the treated serum and the standard curve produced with medium treated peptides, bleomycin and Jurkat cells (Table 5A).

With N=C(N)NCCC[C@H](NC(=O)CNC(=O)[C@@H](N)Cc1ccc(O)cc1)C(=O)N[C@@H](CCCCN)C(=O)N[C@@H](CCCCN)C(=O)N[C@@H](CCCNC(=N)N)C(=O)N[C@@H](CCCNC(=N)N)C(=O)N[C@@H](CCC(N)=O)C(=O)N[C@@H](CCCNC(=N)N)C(=O)N[C@@H](CCCNC(=N)N)C(=O)N[C@@H](CCCNC(=N)N)C(=O)N[C@@H](CC1CCCCC1)C(=O)N[C@@H](Cc1c(F)c(F)c(F)c(F)c1F)C(=O)N[C@@H](CCCNC(=N)N)C(=O)N[C@@H](CO)C(=O)N1CCC[C@H]1C(=O)N[C@@H](CO)C(=O)N[C@@H](Cc1ccc(O)cc1)C(=O)N[C@@H](Cc1ccc(O)cc1)C(=O)O [CBP413, (l-Tyr)(l-Gly)(l-Arg)(l-Lys)(l-Lys)(l-Arg)(l-Arg)(l-Gln)(l-Arg)(l-Arg)(l-Arg)(l-Cha)(l-Phe-2,3,4,5,6-F)(l-Arg)(l-Ser)(l-Pro)(l-Ser)(l-Tyr)(l-Tyr)] as the compound, how does the MTD ([1]; ip, single intra-peritoneal injection, read-out: MTD (ip)) read?
Its MTD is 147 mg/kg.

And the MTD ([1]; single intravenous injection, read-out: MTD (iv))?
The MTD was 14 mg/kg.

For N=C(N)NCCC[C@H](NC(=O)CNC(=O)[C@@H](N)Cc1ccc(O)cc1)C(=O)N[C@@H](CCCCN)C(=O)N[C@@H](CCCCN)C(=O)N[C@@H](CCCNC(=N)N)C(=O)N[C@@H](CCCNC(=N)N)C(=O)N[C@@H](CCC(N)=O)C(=O)N[C@@H](CCCNC(=N)N)C(=O)N[C@@H](CCCNC(=N)N)C(=O)N[C@@H](CCCNC(=N)N)C(=O)N[C@@H](CC1CCCCC1)C(=O)N[C@@H](Cc1c(F)c(F)c(F)c(F)c1F)C(=O)N[C@@H](CCCNC(=N)N)C(=O)N[C@@H](CO)C(=O)N1CCC[C@H]1C(=O)N[C@@H](CO)C(=O)N[C@@H](Cc1ccc(O)cc1)C(=O)O [CBP420, (l-Tyr)(l-Gly)(l-Arg)(l-Lys)(l-Lys)(l-Arg)(l-Arg)(l-Gln)(l-Arg)(l-Arg)(l-Arg)(l-Cha)(l-Phe-2,3,4,5,6-F)(l-Arg)(l-Ser)(l-Pro)(l-Ser)(l-Tyr)], which “Appearance of side effect when used with Colchicine” value [2] is on record?
The value was “≧50 μM”.

For N=C(N)NCCC[C@@H](NC(=O)[C@@H](CCCCN)NC(=O)[C@@H](CCCCN)NC(=O)[C@@H](CCCNC(=N)N)NC(=O)[C@@H](CCCNC(=N)N)NC(=O)[C@@H](CCC(N)=O)NC(=O)[C@@H](CCCNC(=N)N)NC(=O)[C@@H](CCCNC(=N)N)NC(=O)[C@@H](CCCNC(=N)N)NC(=O)[C@@H](CC1CCCCC1)NC(=O)[C@@H](Cc1c(F)c(F)c(F)c(F)c1F)NC(=O)[C@@H](CCCNC(=N)N)NC(=O)[C@@H](CO)NC(=O)CNC(=O)[C@@H](CO)NC(=O)[C@@H](Cc1ccc(O)cc1)NC(=O)[C@H](N)Cc1ccc(O)cc1)C(=O)NCC(=O)N[C@H](Cc1ccc(O)cc1)C(=O)O [CBP450, (d-Tyr)(d-Tyr)(d-Ser)(l-Gly)(d-Ser)(d-Arg)(d-Phe-2,3,4,5,6-F)(d-Cha)(d-Arg)(d-Arg)(d-Arg)(d-Gln)(d-Arg)(d-Arg)(d-Lys)(d-Lys)(d-Arg)(l-Gly)(d-Tyr)] (H-[dY][dY][dS]G[dS][dR][dPhe(F5)][dCha][dR][dR][dR][dQ][dR][dR][dK][dK][dR]G[dY]-OH; N-terminus and C-terminus assumed), which G2 abrogating dose [3] is on record?
The G2 abrogating dose was “≧0.78 μM”.

For N=C(N)NCCC[C@@H](NC(=O)[C@@H](CCCNC(=N)N)NC(=O)[C@@H](CCC(N)=O)NC(=O)[C@@H](CCCNC(=N)N)NC(=O)[C@@H](CCCNC(=N)N)NC(=O)[C@@H](CCCNC(=N)N)NC(=O)[C@@H](CC1CCCCC1)NC(=O)[C@@H](Cc1c(F)c(F)c(F)c(F)c1F)NC(=O)[C@@H](CO)NC(=O)[C@@H](Cc1c[nH]c2ccccc12)NC(=O)[C@@H](CO)NC(=O)[C@@H](Cc1ccc(C(=O)c2ccccc2)cc1)NC(=O)[C@H](N)Cc1ccc(O)cc1)C(=O)O [CBP500, (d-Tyr)(d-Bpa)(d-Ser)(d-Trp)(d-Ser)(d-Phe-2,3,4,5,6-F)(d-Cha)(d-Arg)(d-Arg)(d-Arg)(d-Gln)(d-Arg)(d-Arg)] (H-[dY][dBpa][dS][dW][dS][dPhe(F5)][dCha][dR][dR][dR][dQ][dR][dR]-OH; N-terminus and C-terminus assumed), which G2 abrogating dose [3] is on record?
The G2 abrogating dose was “≧0.39 μM”.

With N=C(N)NCCC[C@@H](NC(=O)[C@@H](CCCNC(=N)N)NC(=O)[C@@H](CCC(N)=O)NC(=O)[C@@H](CCCNC(=N)N)NC(=O)[C@@H](CCCNC(=N)N)NC(=O)[C@@H](CCCNC(=N)N)NC(=O)[C@@H](CC1CCCCC1)NC(=O)[C@@H](Cc1ccc([N+](=O)[O-])cc1)NC(=O)[C@@H](CO)NC(=O)[C@@H](Cc1c[nH]c2ccccc12)NC(=O)[C@@H](CO)NC(=O)[C@H](N)Cc1ccc(C(=O)c2ccccc2)cc1)C(=O)O [CBP603, (d-Bpa)(d-Ser)(d-Trp)(d-Ser)(d-Phe4No2)(d-Cha)(d-Arg)(d-Arg)(d-Arg)(d-Gln)(d-Arg)(d-Arg)] (H-[dBpa][dS][dW][dS][dPhe(4-NO2)][dCha][dR][dR][dR][dQ][dR][dR]-OH; N-terminus and C-terminus assumed) as the compound, how does the “Stability in serum (in words)” value [4] read?
Its value is “more stable in serum”.

With “(d-Arg)(d-Arg)(d-Arg)(d-Arg)(d-Bpa)(d-Arg)(d-Trp)(d-Arg)(d-Phe-2,3,4,5,6-F)(d-Cha) [CBP702]” as the compound, how does the “G2 checkpoint abrogating activity (in words)” value [3] read?
Its value is “retain G2 checkpoint abrogating activity comparable to other peptides having significant G2 checkpoint abrogating activity”.

For “(d-Arg)(d-Arg)(d-Arg)(d-Bpa)(d-Arg)(d-Arg)(d-Arg)(d-Phe-2,3,4,5,6-F)(d-Cha) [CBP703]”, which “G2 checkpoint abrogating activity (in words)” value [3] is on record?
The value was “retain G2 checkpoint abrogating activity comparable to other peptides having significant G2 checkpoint abrogating activity”.

With “(d-Arg)(d-Arg)(d-Arg)(d-Bpa)(d-Arg)(d-Trp)(d-Arg)(d-Phe-2,3,4,5,6-F)(d-Cha) [CBP701]” as the compound, how does the “G2 checkpoint abrogating activity (in words)” value [3] read?
The value was “retain G2 checkpoint abrogating activity comparable to other peptides having significant G2 checkpoint abrogating activity”.

For “(d-Arg)(d-Arg)(d-Bpa)(d-Arg)(d-Arg)(d-Arg)(d-Phe-2,3,4,5,6-F)(d-Cha) [CBP700]”, which “G2 checkpoint abrogating activity (in words)” value [3] is on record?
Its value is “retain G2 checkpoint abrogating activity comparable to other peptides having significant G2 checkpoint abrogating activity”.
